The nature of data set [1]: Animal body weight in the in vivo protection test (pulmonary infection in mice). As to conditions: for Weight on day 1 / Weight on day 4 / Weight on day 5: ip. As for the experimental part:
(§1) 46 female CD-1 (ICR) mice, supplied by Beijing Vital River Laboratory Animal Technology Co., Ltd., body weight of 23-27 g, 7 weeks old.
The mice were weighed each day after the start of the test and body weight changes were recorded.
(§2) CFU scatter plots of lung tissue were made using Graphpad Prism mapping software. The average CFU and body weight were calculated by SPSS 19.0 software, and the differences between groups were analyzed by variance analysis.

The test system of data set [2] is Pseudomonas aeruginosa PA14. The experiment in a line: Pulmonary Pseudomonas aeruginosa infection in immunosuppressive mice: lung bacterial load. As to conditions: for LOG10 of Bacterial load: lung tissue 24 h after infection, immunosuppressed CD-1 mice, ip at 2 h, 4 h, 6 h, 8 h. It counts as in vivo. As for the experimental part: Pseudomonas aeruginosa PA14.
as §1
46 immunosuppressive mice were formed by intraperitoneal injection of cyclophosphamide 150 mg/kg on day 1 and day 4.
Seven groups were set up, including high, medium and low dose groups of compound represented by formula (I), high and medium-dose groups of compound I-g, aztreonam group and model group; there were 6 animals in each group, the other 4 animals were subjected to pulmonary infection for 2 h, and the lung tissues were removed to count the bacterial load. See the table below for specific grouping.
Mice were injected intratracheally with 50 μL of bacterial fluid (2×10^3 CFU). Four model mice were sacrificed 2 h after infection.
2 h after infection, the mice were injected intraperitoneally once at 2 h, 4 h, 6 h and 8 h according to the groups, for a total of 4 times.
24 h after infection, the mice in each group were sacrificed by cervical dislocation, and the lung and kidney tissues were removed aseptically, then placed into sterilized homogenate tube, weighed, added with proper amount of normal saline (NS), and homogenized by a homogenizer for 1 min; the lung tissues in model group were diluted 10^4, 10^5, and 10^6-fold, the lung tissues in each administration group were diluted 10 and 100-fold, the kidney tissues in model group were diluted 10^2, 10^3, and 10^4-fold, and the lung tissues in each administration group were diluted 10-fold; the serial diluents were plated onto TSA plates with a spiral coater, and incubated overnight at 37° C. to determine CFU counts with a colony counter.
as §2
Mice were injected intraperitoneally with compounds of formula (I), compound I-g and aztreonam at 2 h, 4 h, 6 h and 8 h after infection; animals were sacrificed at 24 h, lung tissues were removed aseptically, immersed in normal saline (NS), homogenized, diluted appropriately, and then 50 μL of diluents were evenly plated onto TSA plates; the plates were incubated overnight in a 37° C. incubator to count the number of colonies, which was converted to CFU per milliliter by a dilution ratio, and logarithmic value of the bacterial load was calculated of base 10, and the mean and standard deviation were compared in each group.

Marks after values point to notes of the source that are not given here.

`C[C@H]1[C@H](NC(=O)/C(=N\OC(C)(C)C(=O)O)c2csc(N)n2)C(=O)N1S(=O)(=O)O` [Aztreonam, aztreonam, reference compound]: in data set [1] (400 mg/kg day group), the “Weight on day 1” value is given as 27.16 ± 1.74 g, the “Weight on day 4” value is 27.80 ± 2.37 g and the “Weight on day 5” value amounted to 28.02 ± 1.08 g. Moreover, the “LOG10 of Bacterial load” value in data set [2] (total dose 400 mg/kg day) worked out at 1.62 ± 2.22.

For `CC1(C)[C@H](NC(=O)/C(=N\O[C@@H](COc2ccc3c(c2)CN(C(=N)N(CCCN)CCCN)C3)C(=O)O)c2csc(N)n2)C(=O)N1OS(=O)(=O)O` [Compound represented by formula (I)], the figures for the “Weight on day 1” value in data set [1] (60 mg/kg day group), in data set [1] (120 mg/kg day group) and in data set [1] (200 mg/kg day group) were 26.14 ± 1.21 g, 26.47 ± 1.65 g and 26.91 ± 1.03 g, respectively. Moreover, the “Weight on day 4” value worked out at 27.76 ± 0.43 g in data set [1] (60 mg/kg day group), 28.33 ± 1.14 g in data set [1] (120 mg/kg day group) and 28.03 ± 2.15 g in data set [1] (200 mg/kg day group). The “Weight on day 5” value came out at 26.77 ± 1.02 g in data set [1] (60 mg/kg day group), 28.01 ± 1.35 g in data set [1] (120 mg/kg day group) and 25.40 ± 2.75 g in data set [1] (200 mg/kg day group). Also, the “Safety conclusion from body weight (in words)” value in data set [1] (administration group) was “safe”. Besides, the “Elimination of the bacteria infected on the lung (in words)” value in data set [2] (at the lowest dose) was “completely eliminated”. For the same molecule, the “Elimination of bacterial load in lung tissue (in words)” value in data set [2] (high, middle and low-dose groups, 24 h after infection) is “completely eliminated”. The “LOG10 of Bacterial load” value in data set [2] (total dose 60 mg/kg day), in data set [2] (total dose 120 mg/kg day) and in data set [2] (total dose 200 mg/kg day) was 0** throughout.

With `CC1(C)[C@H](NC(=O)/C(=N\O[C@@H](COc2ccc(C(=N)N[C@@H]3CCCNC3)cc2)C(=O)O)c2csc(N)n2)C(=O)N1OS(=O)(=O)O` [I-g, reference compound], in data set [1] (120 mg/kg day group), the “Weight on day 1” value is 27.02 ± 1.12 g, the “Weight on day 4” value was 28.21 ± 1.16 g and the “Weight on day 5” value is reported as 27.20 ± 0.96 g. Moreover, in data set [1] (200 mg/kg day group), the “Weight on day 1” value was found to be 27.25 ± 1.14 g, the “Weight on day 4” value is listed as 28.39 ± 1.60 g and the “Weight on day 5” value worked out at 26.43 ± 1.06 g. The “LOG10 of Bacterial load” value in data set [2] (total dose 120 mg/kg day) is 1.58 ± 2.45. Moreover, in data set [2] (total dose 200 mg/kg day), the “LOG10 of Bacterial load” value is recorded as 0**.

Source of the values: patent US12310948B2, “Application of monocyclic β-lactam compound in pharmacy” (SHENZHEN OPTIMUM BIOLOGICAL TECHNOLOGY CO., LTD, priority 2018, dated 2025).
